Test results reported in ChEMBL document CHEMBL1201862, “PubChem BioAssay data set” (2004).
Structures can show the parent of a compound that is named as a salt.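 Briefly, cells in 96-well plates were exposed to five compound concentrations for 48 h, and endpoints were estimated by linear interpolation. The concentration for 50% growth inhibition is given as GI50.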 Active and inactive are the calls of the source. No stated cut-off is given here; in the data, active = GI50 up to about 1.1 µM and inactive = higher.

Tests used:
Assay in all cases: DTP human tumour cell line panel, 48 h
NCI-H23 = test system: NCI-H23
Malme-3M = test system: Malme-3M
SNB-19 = test system: SNB-19
SN12C = test system: SN12C
OVCAR-4 = test system: OVCAR-4
SNB-78 = test system: SNB-78
SF-295 = test system: SF-295
UACC-62 = test system: UACC-62
ACHN = test system: ACHN
UO-31 = test system: UO-31
HOP-92 = test system: HOP-92
A549 = test system: A549
SNB-75 = test system: SNB-75
TK-10 = test system: TK-10
HT-29 = test system: HT-29
786-0 = test system: 786-0
UACC-257 = test system: UACC-257
MDA-MB-231 = test system: MDA-MB-231
NCI/ADR-RES = test system: NCI/ADR-RES
MDA-N = test system: MDA-N

Measured: GI50

O=C(CSc1c2ccccc2nc2ccccc12)Nc1ccccc1-c1ccccc1NC(=O)CSc1c2ccccc2nc2ccccc12
inactive: NCI-H23 18.9 µM | Malme-3M 30.8 µM | SNB-19 22.4 µM | SN12C 28 µM | OVCAR-4 1.48 µM | SNB-78 27.6 µM | SF-295 25.6 µM | UACC-62 18 µM | ACHN 31.5 µM | UO-31 34.2 µM | HOP-92 30.8 µM | A549 13.3 µM | SNB-75 42.2 µM | TK-10 60.4 µM | HT-29 34.8 µM | 786-0 6.76 µM | UACC-257 22 µM

O=C1CNNC(Cn2nc(-c3ccccc3)c3ccccc3c2=O)=N1
inactive: NCI-H23 > 100 µM | Malme-3M > 100 µM | SNB-19 > 100 µM | SN12C > 100 µM | OVCAR-4 > 100 µM | SNB-78 > 100 µM | SF-295 > 100 µM | UACC-62 > 100 µM | ACHN > 100 µM | UO-31 > 100 µM | HOP-92 > 100 µM | A549 > 100 µM | SNB-75 83 µM | TK-10 > 100 µM | HT-29 > 100 µM | 786-0 > 100 µM | UACC-257 > 100 µM

COc1ccccc1NC(=O)C(=O)C(c1cnc2ccc([N+](=O)[O-])cc2n1)[N+](=O)[O-] (stereo not drawn)
inactive: NCI-H23 > 100 µM | Malme-3M > 100 µM | SNB-19 > 100 µM | SN12C > 100 µM | OVCAR-4 > 100 µM | SNB-78 > 100 µM | SF-295 > 100 µM | UACC-62 53 µM | ACHN 87.3 µM | UO-31 78 µM | HOP-92 > 100 µM | A549 > 100 µM | SNB-75 > 100 µM | TK-10 > 100 µM | HT-29 > 100 µM | 786-0 > 100 µM | UACC-257 > 100 µM

Cc1ccc(S(=O)(=O)c2c(N)c3nccn3c3nc4ccccc4nc23)cc1
inactive: NCI-H23 > 100 µM | Malme-3M > 100 µM | SNB-19 > 100 µM | SN12C > 100 µM | OVCAR-4 > 100 µM | SNB-78 53.5 µM | UACC-62 20.4 µM | ACHN 79.8 µM | UO-31 > 100 µM | HOP-92 > 100 µM | A549 > 100 µM | SNB-75 7.85 µM | TK-10 69.8 µM | 786-0 49 µM | UACC-257 > 100 µM

O=C(Cc1ccccc1)C(c1ccccc1)S(=O)(=O)c1ccccc1 (stereo not drawn)
inactive: NCI-H23 77.4 µM | Malme-3M > 100 µM | SNB-19 > 100 µM | SN12C > 100 µM | OVCAR-4 73.3 µM | SNB-78 97.7 µM | SF-295 > 100 µM | UACC-62 75.2 µM | ACHN > 100 µM | UO-31 41.2 µM | HOP-92 81.5 µM | A549 59.4 µM | SNB-75 23 µM | TK-10 > 100 µM | HT-29 > 100 µM | 786-0 > 100 µM | UACC-257 > 100 µM

CCOC(=O)NN1C(=O)C(=P(c2ccccc2)(c2ccccc2)c2ccccc2)C(C(=O)OCC)=C1C
inactive: NCI-H23 > 100 µM | Malme-3M > 100 µM | SNB-19 > 100 µM | SN12C > 100 µM | OVCAR-4 > 100 µM | SNB-78 > 100 µM | SF-295 > 100 µM | UACC-62 > 100 µM | ACHN > 100 µM | UO-31 > 100 µM | HOP-92 > 100 µM | A549 > 100 µM | SNB-75 > 100 µM | TK-10 > 100 µM | HT-29 > 100 µM | 786-0 > 100 µM | UACC-257 > 100 µM

C[n+]1c(-c2ccc(/C=C/C=N\NC(=O)c3ccc(C(=O)N/N=C\C=C\c4ccc(-c5cn6ccccc6[n+]5C)cc4)cc3)cc2)cn2ccccc21
inactive: NCI-H23 71.4 µM | Malme-3M > 100 µM | SNB-19 > 63.4 µM | SN12C > 100 µM | OVCAR-4 > 81.7 µM | MDA-MB-231 > 43.3 µM | SF-295 > 100 µM | NCI/ADR-RES > 100 µM | UACC-62 > 100 µM | MDA-N > 100 µM | ACHN > 100 µM | UO-31 > 100 µM | HOP-92 > 100 µM | A549 74.1 µM | SNB-75 > 100 µM | TK-10 > 86.3 µM | HT-29 > 100 µM | 786-0 30.3 µM | UACC-257 > 100 µM

N=C(N)c1ccc(-c2ccc(-c3ccc(C(=N)N)cc3)o2)cc1 [FURAMIDINE HYDROCHLORIDE]
inactive: NCI-H23 22 µM | Malme-3M 18.6 µM | SNB-19 51.9 µM | SN12C 12.6 µM | OVCAR-4 > 100 µM | MDA-MB-231 > 100 µM | SF-295 41.4 µM | NCI/ADR-RES 31.3 µM | UACC-62 25.6 µM | MDA-N 27.5 µM | ACHN 39.6 µM | UO-31 15.8 µM | HOP-92 62.4 µM | A549 34.2 µM | SNB-75 42 µM | TK-10 24.9 µM | HT-29 24.5 µM | 786-0 23.2 µM | UACC-257 27.9 µM
